pIC50, pKd: −log10 of the molar value. Counter-ions that a name gives are not always drawn.

The subject of test [1] is IL-17 production by CD4 T cells. Nature of the test: Human Th17 assay (IL-17 production by CD4 T cells under Th17 differentiation). The class given is cell-based. The conditions noted are these: 3 days, IL-17 in supernatant. Here is the method:
The human Th17 assay tests the effect of RORγt modulatory compounds on IL-17 production by CD4 T cells under conditions which favor Th17 differentiation. Total CD4^+ T cells were isolated from the peripheral blood mononuclear cells (PBMC) of healthy donors using a CD4^+ T cell isolation kit II, following the manufacturer's instructions (Miltenyi Biotec). […] 50 μL of compound at titrated concentrations in DMSO were added into each well at final DMSO concentration at 0.2%. Cells were incubated for 1 hour, then 50 μL of Th17 cell differentiation medium was added to each well. The final concentrations of antibodies and cytokines (R&D Systems) in differentiation medium were: 3×10^6/mL anti-CD3/CD28 beads (prepared using human T cell activation/expansion kit, Miltenyi Biotec), 10 μg/mL anti-IL4, 10 μg/mL anti-IFNγ, 10 ng/mL IL1β, 10 ng/mL IL23, 50 ng/mL IL6, 3 ng/mL TGFβ and 20 U/mL IL2. Cells were cultured at 37° C. and 5% CO2 for 3 days. Supernatants were collected and the accumulated IL-17 in culture was measured by using MULTI-SPOT® Cytokine Plate following manufacture's instruction (Meso Scale Discovery). The plate was read using Sector Imager 6000, and IL-17 concentration was extrapolated from the standard curve. The IC50s were determined by GraphPad.

The target in test [2] is T1, human RORγt LBD (Homo sapiens, UniProt P51449).
T1 construct: expressed in transfected cells; host or cells: HEK293T
T1 sequence (P51449 258-518): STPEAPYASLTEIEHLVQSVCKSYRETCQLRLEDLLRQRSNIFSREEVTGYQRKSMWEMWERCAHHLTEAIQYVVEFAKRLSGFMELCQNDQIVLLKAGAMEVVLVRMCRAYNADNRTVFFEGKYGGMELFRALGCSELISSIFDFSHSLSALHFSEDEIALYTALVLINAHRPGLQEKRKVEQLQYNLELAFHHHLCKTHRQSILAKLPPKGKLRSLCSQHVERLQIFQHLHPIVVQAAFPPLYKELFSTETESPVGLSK
Nature of the test: RORγt reporter assay (GAL4-RORγt LBD luciferase, HEK293T cells). The class given is cell-based. The settings on record: for RORγt reporter Assay, % inhibition @ 6 μM: 6 μM compound; for RORγt reporter Assay, % inhibition @ 6 μM / pIC50: HEK293T cells; for pIC50: 24 hours compound treatment, firefly/renilla luciferase ratio; for inhibition at 6 µM: HEK-293T, read-out: RORγt reporter Assay, % inhibition @ 6 μM, 6 μM compound, HEK293T cells. An excerpt: A reporter assay was used to test functional activity of RORγt modulatory compounds on transcriptional activation driven by the RORγt LBD. Cells used in the assay were co-transfected with two constructs. The first construct, pBIND-RORγt LBD, contained the wild type human RORγt LBD fused to the DNA binding domain of the GAL4 protein. The second construct, pGL4.31 (Promega Cat no. C935A), contained multiple GAL4 responsive DNA elements upstream of firefly luciferase. […] The mutant construct was called pBIND-RORγt-AF2.
The pBIND vector contains the GAL4 DNA Binding Domain (GAL4 DBD) and the renilla luciferase gene under control of the SV40 promoter. Renilla luciferase expression serves as a control for transfection efficiency and cell viability.
The reporter assay was performed by transiently transfecting HEK293T cells with 5 μg of pBIND-RORγt LBD or pBIND-RORγt LBD-AF2 and 5 μg pGL4.31 (Promega Cat no. C935A) using Fugene 6 (Invitrogen Cat no. E2691) at a 1:6 ratio of DNA:Fugene 6 in a T-75 flask in which cells were at least 80% confluent. Twenty four hours after bulk transfection, cells were plated into 96-well plates at 50,000 cells/well in phenol-red free DMEM containing 5% Lipid Reduced FCS and Pen/Strep. Six hours after plating, cells were treated with compounds for 24 hours. Media was removed and cells were lysed with 50 μL 1×Glo Lysis Buffer (Promega). Dual Glo Luciferase Reagent (50 μL/well) was then added and firefly luciferase luminescence was read on an Envision after a ten minute incubation. Finally, Stop and Glo reagent (50 IAL/well) was added and renilla luciferase luminescence was read on an Envision instrument after a ten minute incubation. To calculate the effect of compounds on RORγt activity, the ratio of firefly to renilla luciferase was determined and plotted against compound concentration. Agonist compounds increase RORγt-driven luciferase expression, and antagonist or inverse agonist compounds decrease luciferase expression.
On the technique in general: Reporter assays use an easily measured gene product as a stand-in for the process of interest.

Test [3] deals with T2, human RORγt ligand binding domain (RORγt LBD) (Homo sapiens, UniProt P51449).
T2 construct: His-tag (N); TurboTEV protease cleavage site (ENLYFQG) (N); made in house; host or cells: E. coli (pHIS1, modified pET vector)
T2 sequence (P51449 with tags, fused parts or gaps): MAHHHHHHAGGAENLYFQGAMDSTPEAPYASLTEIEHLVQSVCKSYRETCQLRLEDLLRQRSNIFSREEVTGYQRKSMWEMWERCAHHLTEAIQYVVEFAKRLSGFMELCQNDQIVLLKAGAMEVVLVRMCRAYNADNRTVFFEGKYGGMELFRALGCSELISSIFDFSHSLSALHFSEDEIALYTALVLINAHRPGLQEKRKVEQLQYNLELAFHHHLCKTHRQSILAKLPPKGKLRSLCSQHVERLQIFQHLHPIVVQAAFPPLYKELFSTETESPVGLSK
Nature of the test: RORγt ThermoFluor® assay (thermal shift binding). The settings on record: RORγt LBD, 1,8-ANS dye, pH 7.0; Kd estimated from thermal shift. Here is the method:
This approach is applicable to a wide variety of systems, and rigorous in theoretical interpretation through quantitation of equilibrium binding constants (KD).
The shift in the melting point described as a ΔTm is proportional to the concentration and affinity of the ligand.
Protein and compound solutions are dispensed into black 384-well polypropylene PCR microplates (Abgene) and overlayed with silicone oil (1 μL, Fluka, type DC 200) to prevent evaporation.
Bar-coded assay plates are robotically loaded onto a thermostatically controlled PCR-type thermal block and then heated at a typical ramp-rate of 1° C./min for all experiments. Fluorescence was measured by continuous illumination with UV light (Hamamatsu LC6) supplied via fiber optic and filtered through a band-pass filter (380-400 nm; >6 OD cutoff). Fluorescence emission of the entire 384-well plate was detected by measuring light intensity using a CCD camera (Sensys, Roper Scientific) filtered to detect 500±25 nm, resulting in simultaneous and independent readings of all 384 wells. Images were collected at each temperature, and the sum of the pixel intensity in a given area of the assay plate was recorded versus temperature. Reference wells contained RORγt without compounds, and the assay conditions were as follows: • 0.065 mg/mL RORγt • 60 μM 1,8-ANS • 100 mM Hepes, pH 7.0 • 10 mM NaCl • 2.5 mM GSH • 0.002% Tween-20
Project compounds were arranged in a pre-dosed mother plate (Greiner Bio-one) wherein compounds are serially diluted in 100% DMSO by 1:2 from a high concentration of 10 mM over 12 columns within a series (column 12 is a reference well containing DMSO, no compound). The compounds were robotically dispensed directly into assay plates (1×=46 nL) using a Hummingbird capillary liquid handling instrument (Digilab). Following compound dispense, protein and dye in buffer was added to achieve the final assay volume of 3 μL, followed by 1 μL of silicone oil.

For `Cc1nc(C)c(C(O)(c2ccc3nc(Cl)c(-c4ccccc4)c(Cl)c3c2)c2cncn2C)s1` (stereo not shown) [Example 68, (2,4-Dichloro-3-phenylquinolin-6-yl)(2,4-dimethylthiazol-5-yl)(1-methyl-1H-imidazol-5-yl)methanol], the pIC50 – broadly, the IC50 on a negative log10 scale, so that one unit is a factor of ten – in test [1] (72 h) was 7.70.

`CC(=O)N1CCC(C(O)(c2cccnc2)c2ccc3nc(C(F)(F)F)c(-c4ccccc4)c(C#N)c3c2)CC1` (single isomer, unassigned) [Example 30b, 6-((1-Acetylpiperidin-4-yl)(hydroxy)(pyridin-3-yl)methyl)-3-phenyl-2-(trifluoromethyl)quinoline-4-carbonitrile]: in test [2], the “RORγt reporter Assay, % inhibition @ 6 μM” value is on record as 95%. Besides, the pIC50 in test [2] is 7.31; in test [1], 7.24. The pKd – broadly, −log10 of the Kd, conventionally taken in molar units – in test [3] was 6.52.

With `COc1c(-c2ccccc2)c(Cl)nc2ccc(C(O)(c3cnnn3C)c3cnc(C)n3C)cc12` (single isomer, unassigned) [Example 40b, (2-Chloro-4-methoxy-3-phenylquinolin-6-yl)(1,2-dimethyl-1H-imidazol-5-yl)(1-methyl-1H-1,2,3-triazol-5-yl)methanol], the pIC50 in test [2] is 6.17. Moreover, the pKd in test [3] is 6.82.

Take `CC(=O)N1CCC(C(O)(c2cccnc2)c2ccc3nc(C(F)(F)F)c(-c4ccccc4)c(C#N)c3c2)CC1` (single isomer, unassigned) [Example 30a, 6-((1-Acetylpiperidin-4-yl)(hydroxy)(pyridin-3-yl)methyl)-3-phenyl-2-(trifluoromethyl)quinoline-4-carbonitrile.TFA]: in test [2], the pIC50 was 6.96 and the inhibition – broadly, the relative decrease from the control value, in per cent – at 6 µM came out at 91%. The pKd in test [3] is 7.64.

In the case of `COc1c(-c2ccccc2)c(Cl)nc2ccc(C(O)(c3cnnn3C)c3cnc(C)n3C)cc12` (single isomer, unassigned) [Example 40c, (2-Chloro-4-methoxy-3-phenylquinolin-6-yl)(1,2-dimethyl-1H-imidazol-5-yl)(1-methyl-1H-1,2,3-triazol-5-yl)methanol], the pIC50 in test [2] was 6.72. In addition, the pKd in test [3] was 6.92.

Regarding `COc1nc2ccc(C(O)(c3cncn3C)C3CCN(C(C)=O)CC3)cc2c(C#N)c1-c1cccc(C(F)(F)F)c1` (single isomer, unassigned) [Example 2c, 6-((1-Acetylpiperidin-4-yl)(hydroxy)(1-methyl-1H-imidazol-5-yl)methyl)-2-methoxy-3-(3-(trifluoromethyl)phenyl)quinoline-4-carbonitrile], the pIC50 in test [2] was 6.77.

Consider `Cn1cncc1C(O)(c1ccc(Cl)cc1)c1ccc2nc(C(F)(F)F)c(-c3ccccc3)c(C#N)c2c1` (single isomer, unassigned) [Example 31c, 6-((4-Chlorophenyl)(hydroxy)(1-methyl-1H-imidazol-5-yl)methyl)-3-phenyl-2-(trifluoromethyl)quinoline-4-carbonitrile], for which, in test [2], the “RORγt reporter Assay, % inhibition @ 6 μM” value is listed as 85% and the pIC50 was 5.80. In addition, in test [3], the pKd is 5.48.

`Cn1cncc1C(O)(c1ccc(Cl)cc1)c1ccc2nc(C(F)(F)F)c(-c3ccccc3)c(C#N)c2c1` (single isomer, unassigned) [Example 31a, 6-((4-Chlorophenyl)(hydroxy)(1-methyl-1H-imidazol-5-yl)methyl)-3-phenyl-2-(trifluoromethyl)quinoline-4-carbonitrile.TFA]: in test [2], the pIC50 was 6.82 and the inhibition at 6 µM is 102%.

With `Cc1cc(C(O)(c2ccc(C(F)(F)F)nc2)c2cncn2C)cc2c(C#N)c(-c3ccccc3)c(C#N)nc12` (single isomer, unassigned) [Example 25c, 6-(Hydroxy(1-methyl-1H-imidazol-5-yl)(6-(trifluoromethyl)pyridin-3-yl)methyl)-8-methyl-3-phenylquinoline-2,4-dicarbonitrile], the pIC50 in test [1] (Homo sapiens, CD4+ T, 72 h) is 6.80.

In turn, `Cn1cncc1C(O)(c1ccc(Cl)cc1)c1ccc2nc(Cl)c(-c3ccccc3)c(Cl)c2c1` (stereo not shown) [Example 65, (4-Chlorophenyl)(2,4-dichloro-3-phenylquinolin-6-yl)(1-methyl-M-imidazol-5-yl)methanol] had a pIC50 in test [1] (72 h) of 5.74.

Consider `CC(=O)N1CCC(C(O)(c2cccnc2)c2ccc3nc(C(F)(F)F)c(-c4ccccc4)c(C#N)c3c2)CC1` (single isomer, unassigned) [Example 30c, 6-((1-Acetylpiperidin-4-yl)(hydroxy)(pyridin-3-yl)methyl)-3-phenyl-2-(trifluoromethyl)quinoline-4-carbonitrile], for which, in test [2], the “RORγt reporter Assay, % inhibition @ 6 μM” value is given as 93% and the pIC50 is 6.85. Moreover, the pKd in test [3] is 8.05. Besides, the pIC50 in test [1] was 5.66.

Regarding `Cn1cncc1C(O)(c1ccc(Cl)cc1)c1ccc2nc(C(F)(F)F)c(-c3ccccc3)c(C#N)c2c1` (single isomer, unassigned) [Example 31b, 6-((4-Chlorophenyl)(hydroxy)(1-methyl-1H-imidazol-5-yl)methyl)-3-phenyl-2-(trifluoromethyl)quinoline-4-carbonitrile], in test [2], the “RORγt reporter Assay, % inhibition @ 6 μM” value is given as 103% and the negative-log IC50 (pIC50) was 7.38. The pKd in test [3] was 8.30. Moreover, in test [1] (Homo sapiens, CD4+ T, 72 h), the pIC50 was 7.70.

The values are drawn from US10369146B2, “Phenyl linked quinolinyl modulators of RORγt” (Janssen Pharmaceutica NV, priority 2013, dated 2019).
